As usually defined, the melting point is the temperature, or range, at which the solid turns liquid.

In patent publication US9422244B2, “Synthesis of substituted pyrazoline carboxamidine derivatives” (Abbvie Bahamas Ltd., priority 2010, dated 2016) one finds melting point data, which are given here for twelve compounds.

`CCN/C(=N\S(=O)(=O)c1ccccc1Cl)N1CCC(CC)=N1`: the melting point fell in the range of 87 to 88 °C.

Compound `CCNC(=S)N1CC2(C=N1)CCCC2` [compound 1, 2,3-Diazaspiro[4.4]non-3-ene-2-carbothioic acid ethylamide] showed a melting point of 120 to 121 °C.

Consider `CCN/C(=N\S(=O)(=O)c1ccc(N)cc1)N1CC2(C=N1)CCCC2` [compound 4, 4-Amino-N-[(2,3-diaza-spiro[4.4]non-3-en-2-yl)-ethylamino-methylene]-benzenesulfonamide], for which the melting point was in the range of 141 to 142 °C.

As for `CCNC(=S)N1CC(C)(C)C=N1` [compound 5, 4,4-Dimethyl-4,5-dihydro-pyrazole-1-carbothioic acid ethylamide], the melting point was in the range of 66 to 67 °C.

`O=C(Nc1ccccc1Br)C(F)(F)F` [compound 12, N-(2-Bromo-phenyl)-2,2,2-trifluoro-acetamide] registered a melting point of 58 to 59 °C.

For `O=C(Nc1ccc(S(=O)(=O)Cl)cc1Br)C(F)(F)F` [compound 13, 3-Bromo-4-(2,2,2-trifluoro-acetylamino)-benzenesulfonyl chloride], the melting point lay within 60 to 61 °C.

Compound `NS(=O)(=O)c1ccc(NC(=O)C(F)(F)F)c(Br)c1` [compound 14, N-(2-Bromo-4-sulfamoyl-phenyl)-2,2,2-trifluoro-acetamide] showed a melting point of 171 to 172 °C.

Turning to `NS(=O)(=O)c1c(Cl)nc2sccn12` [compound 21, 6-Chloro-imidazo[2,1-b]thiazole-5-sulfonic acid amide], the melting point was in the range of 184 to 185 °C.

For the compound `CCN/C(=N\S(=O)(=O)/C=C/c1ccccc1)N1CC(CC)C=N1` (stereo not drawn) [compound 29, Trans-2-phenyl-ethenesulfonic acid ethylamino-(4-ethyl-4,5-dihydro-pyrazol-1-yl)-methylene-amide], the melting point fell in the range of 91 to 92 °C.

Consider `NS(=O)(=O)c1ccc(Cl)s1` [compound 30, 5-Chloro-thiophene-2-sulfonic acid amide], for which the melting point was 109 to 110 °C.

`CC1(C)C=NN(C(N)=S)C1` [compound 31, 4,4-Dimethyl-4,5-dihydro-pyrazole-1-carbothioic acid amide] yielded a melting point of 149 to 150 °C.

Compound `CC1(C)C=NN(/C(N)=N/S(=O)(=O)c2ccc(Cl)s2)C1` [compound 33, 5-Chloro-thiophene-2-sulfonic acid amino-(4,4-dimethyl-4,5-dihydro-pyrazol-1-yl)-methylene-amide] registered a melting point of 164 to 165 °C.
